Article PMC9897788, “Design, synthesis and cytotoxic evaluation of novel bis-thiazole derivatives as preferential Pim1 kinase inhibitors with in vivo and in silico study” (Journal of Enzyme Inhibition and Medicinal Chemistry, 2023)

Columns and labels:
Pim2 kinase = Pim2 kinase (Homo sapiens, UniProt Q9P1W9); experiment: In vitro Pim2 kinase inhibition assay (ADP-Glo); type: biochemical; settings: n = 3
[1] = Solubility in DMSO (NMR observation); type: physicochemical; settings: noticed from weak NMR signals

Pim2 kinase, sequence (Q9P1W9 whole entry): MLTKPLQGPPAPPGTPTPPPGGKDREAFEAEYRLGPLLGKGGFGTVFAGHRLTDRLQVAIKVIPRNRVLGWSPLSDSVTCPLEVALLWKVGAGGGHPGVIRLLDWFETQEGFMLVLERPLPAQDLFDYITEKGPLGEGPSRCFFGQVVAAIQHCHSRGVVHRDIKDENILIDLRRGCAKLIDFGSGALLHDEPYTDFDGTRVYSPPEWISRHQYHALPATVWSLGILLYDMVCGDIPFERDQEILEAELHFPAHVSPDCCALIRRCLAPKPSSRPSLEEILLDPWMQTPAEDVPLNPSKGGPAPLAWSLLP

SMILES: CC(=O)c1sc(Nc2cccc(Nc3nc(C)c(C(C)=O)s3)c2)nc1C [3b, 1,1’-(2,2’-(1,3-Phenylenebis(azanediyl))bis(4-methylthiazole-5,2-diyl))diethanone]
- IC50 (Pim2 kinase): 6.05 µM

SMILES: Cc1nc(Nc2cccc(Nc3nc(C)c(N=Nc4ccccc4)s3)c2)sc1N=Nc1ccccc1 [5a, N^1,N^3-bis(4-methyl-5-(phenyldiazenyl)thiazol-2-yl)benzene-1,3-diamine]
- solubility in DMSO [1]: poor solubility in DMSO

SMILES: Fc1ccc(-c2cs/c(=N\c3ccccc3)n2-c2cccc(-n3c(-c4ccc(F)cc4)cs/c3=N\c3ccccc3)c2)cc1 [8b, N,N’-(3,3’-(1,3-phenylene)bis(4–(4-fluorophenyl)thiazole-3(3H)-yl-2(3H)-ylidene))dianiline]
- IC50 (Pim2 kinase): 10.5 µM
